What was measured:
[1] = test system: MELOE-1 specific CD4+ T cells; test: MELOE-1 CD4+ T cell responses in PBMC from healthy donors: restimulation of microcultures with overlapping peptides, CD4/TNF-α staining; type: cell-based, human; conditions: for Microcultures containing MELOE-1 specific CD4+ T cells (TNF-α production): positive/tested microcultures
Method: PBMC from healthy donors were stimulated with 10 μM of MELOE-1. After 14 days, the presence of CD4 T cells specific for the different regions of MELOE-1 was assessed by restimulating cells with MELOE-12-21, MELOE-111-30, MELOE-118-37 and MELOE-126-46 peptides, followed by CD4/TNF-α double staining and flow cytometry analysis. Between brackets is indicated the mean % of TNF-α producing CD4 T cells, in positive microcultures. NA: not available.
(§1) PBMC from healthy donors or melanoma patients (2·10^5 cells/well) were cultured for 14 days with 10 μM of MELOE-1 whole antigen (46 amino acids) in RPMI medium supplemented with 8% HS, 50 IU/ml of rIL-2 (Chiron, France) and L-Glutamin, in 96-well multiplates. Microcultures were then restimulated individually with each overlapping peptide (MELOE-12-21, MELOE-111-30, MELOE-118-37, MELOE-12646 or MELOE-122-46 for melanoma patients) in the presence of 10 μg/mL brefeldin A for 5 hours and the percentage of CD4^+ specific T cells was assessed by TNF-α, IFN-γ or IL-4 intracellular staining. A negative control without peptide was included in all experiments.
Our purpose was to look for the existence of class II helper epitopes all along MELOE-1 sequence (SEQ ID NO:20), in order to document the immunogenicity of the different regions of this melanoma antigen. We stimulated 2·10^7 PBMC from seven healthy donors with MELOE-1 whole antigen and tested, after a 14-day culture period the presence of CD4 T cells specific for each region of the protein. Microcultures were screened for TNFα production by CD4+ T cells, after restimulation with four MELOE-1 derived overlapping peptides (Table I), in an autopresentation assay. […] On the contrary, the central region 18-37, containing an already described DR11-restricted epitope (24-37) located just at the end of this 20-mer peptide (Rogel et al., 2011), induced specific responses in microcultures deriving from only 2/7 donors (HD9 and HD17, both expressing the DR11 element). In these two donors, we detected 6 and 7% of positive microcultures, containing between 0.6 to 3.7% of TNFα producing CD4 T cells.

[2] = test system: MELOE-1 specific CD4 T cells; test: MELOE-1 CD4+ T cell responses in PBMC from melanoma patients: restimulation with peptides, CD4/IFN-γ (Th1) and CD4/IL4 (Th2) staining; type: cell-based, human; conditions: for mean % of cytokine producing CD4 T cells, in positive microcultures (IFN-γ): Th1; for mean % of cytokine producing CD4 T cells, in positive microcultures (IL4): Th2; for Th1 responses (IFN-γ positive microcultures) / Th2 responses (IL4 positive microcultures): positive/tested microcultures
Method: PBMC from melanoma patients were stimulated with 10 μM of MELOE-1. After 14 days, the presence of CD4 T cells specific for the different regions of MELOE-1 was assessed by restimulating cells with MELOE-12-21, MELOE-111-30 and MELOE-122-46 peptides, followed by CD4/IFN-γ double staining for the detection of Th1 responses, and by CD4/IL4 double staining for Th2 responses. Between brackets is indicated the mean % of cytokine producing CD4 T cells, in positive microcultures.
as §1
In order to confirm the immunogenicity of each MELOE-1 regions in melanoma patients, we stimulated melanoma patients PBMC with the MELOE-1 whole protein, and tested the reactivity of stimulated lymphocytes towards the three most immunogenic regions: 2-21, 11-30, and 22-46. For this study, instead of challenging microcultures with the 18-37 peptide, that appeared poorly immunogenic, we extended the C-terminus region from 26-46 to 22-46, in order to also detect responses to our previously described HLA-DR11-restricted epitope (24-37). […] We tested the induction of CD4 specific responses from MELOE-1 stimulated PBMC of […] melanoma patients. We documented CD4 responses specific for the central region of MELOE-1 (11-30) for 7/9 patients, whereas responses specific for MELOE-12-21 and MELOE-122-46 were respectively detected in 4/9 and 5/9 patients (Table III). These responses were mainly Th1 responses (IFN-g production) while less frequent Th2 responses specific for the three regions of MELOE-1 were detected in 3/9 patients for MELOE-12-21, 2/9 patients for MELOE-111-30 and 5/9 patients for MELOE-122-46 (Table III). […] Concerning Th2 responses, much less frequent, the C-term region appeared to induce more frequently the growth of IL-4 producing CD4 T cells than the two other regions (FIG. 2A). […] In summary, stimulation of patient's PBMC with MELOE-1 induced Th1 responses specific for diverse epitopes located all along the protein sequence, and among the different regions, the central region (11-30) and the C-term region (22-46) appeared to be especially immunogenic in term of frequency of responses.

Sequence: TSREQFLPSEGAACPPWHPS [MELOE-111-30]
- frequency of positive microcultures compared with the three other regions of MELOE-1 ([1]; all healthy donors, FIG. 1, p<0.0001): significantly higher
- mean % of TNF-α producing CD4 T cells, in positive microcultures ([1]; donor HD9): (2.4% ± 1.5)
- Microcultures containing MELOE-1 specific CD4+ T cells (TNF-α production) ([1]; donor HD9 (DPβ1*0902/1501, DQβ1*0301, DRβ1*1104/1201)): 13/96
- mean % of TNF-α producing CD4 T cells, in positive microcultures ([1]; donor HD17): (8.2% ± 6.5)
- Microcultures containing MELOE-1 specific CD4+ T cells (TNF-α production) ([1]; donor HD17 (DPβ1*0401/0301, DQβ1*0301/0603, DRβ1*1101/1301)): 26/96
- mean % of TNF-α producing CD4 T cells, in positive microcultures ([1]; donor HD22): (3.9% ± 3.3)
- Microcultures containing MELOE-1 specific CD4+ T cells (TNF-α production) ([1]; donor HD22 (DPβ1*0401/1101, DQβ1*0202, DRβ1*0701)): 2/96
- mean % of TNF-α producing CD4 T cells, in positive microcultures ([1]; donor HD24): (2% ± 1.4)
- Microcultures containing MELOE-1 specific CD4+ T cells (TNF-α production) ([1]; donor HD24 (DPβ1*0401/0101, DQβ1*0501/0602, DRβ1*0101/1501)): 46/96
- mean % of TNF-α producing CD4 T cells, in positive microcultures ([1]; donor HD25): (1.2% ± 0.7)
- Microcultures containing MELOE-1 specific CD4+ T cells (TNF-α production) ([1]; donor HD25 (DPβ1*0401/0402, DQβ1*0201, DRβ1*0301)): 3/96
- mean % of TNF-α producing CD4 T cells, in positive microcultures ([1]; donor HD27): (5% ± 3.4)
- Microcultures containing MELOE-1 specific CD4+ T cells (TNF-α production) ([1]; donor HD27 (DQβ1*501/0201, DRβ1*0101/0301)): 5/96
- Microcultures containing MELOE-1 specific CD4+ T cells (TNF-α production) ([1]; donor HD28 (DRβ1*0301)): 14/48
- donors in which CD4 responses against the region were detected ([1]; seven healthy donors): each tested donor
- Th1 responses, % of tested microcultures ([2]; 576 tested microcultures from melanoma patients, IFN-γ): 10.8%
- patients in which Th2 responses were detected ([2]; melanoma patients, IL4): 2/9
- patients in which CD4 responses specific for the region were detected ([2]; melanoma patients, Table III, Th1 (IFN-γ)): 7/9
- mean % of cytokine producing CD4 T cells, in positive microcultures (IFN-γ) ([2]; patient Pt ≠ 1): (1.4% ± 0.7)
- mean % of cytokine producing CD4 T cells, in positive microcultures (IL4) ([2]; patient Pt ≠ 1): (1%)
- Th1 responses (IFN-γ positive microcultures) ([2]; patient Pt ≠ 1): 10/48
- Th2 responses (IL4 positive microcultures) ([2]; patient Pt ≠ 1): 1/48
- mean % of cytokine producing CD4 T cells, in positive microcultures (IFN-γ) ([2]; patient Pt ≠ 2): (1.6% ± 1.2)
- Th1 responses (IFN-γ positive microcultures) ([2]; patient Pt ≠ 2): 16/96
- Th2 responses (IL4 positive microcultures) ([2]; patient Pt ≠ 2): 0/96
- Th1 responses (IFN-γ positive microcultures) ([2]; patient Pt ≠ 3 (DPβ1*0201/2001, DQβ1*0303/0501, DRβ1*0101/0701)): 5/96
- mean % of cytokine producing CD4 T cells, in positive microcultures (IFN-γ) ([2]; patient Pt ≠ 3): (16.2% ± 33.2)
- Th2 responses (IL4 positive microcultures) ([2]; patient Pt ≠ 3): 0/96
- mean % of cytokine producing CD4 T cells, in positive microcultures (IFN-γ) ([2]; patient Pt ≠ 4): (0.9% ± 0.5)
- Th1 responses (IFN-γ positive microcultures) ([2]; patient Pt ≠ 4): 9/48
- Th2 responses (IL4 positive microcultures) ([2]; patient Pt ≠ 4): 0/48
- mean % of cytokine producing CD4 T cells, in positive microcultures (IFN-γ) ([2]; patient Pt ≠ 5): (1.5% ± 1.1)
- Th1 responses (IFN-γ positive microcultures) ([2]; patient Pt ≠ 5): 6/48
- Th2 responses (IL4 positive microcultures) ([2]; patient Pt ≠ 5): 0/48
- mean % of cytokine producing CD4 T cells, in positive microcultures (IFN-γ) ([2]; patient Pt ≠ 6): (1.5% ± 1.9)
- Th1 responses (IFN-γ positive microcultures) ([2]; patient Pt ≠ 6): 5/48
- Th2 responses (IL4 positive microcultures) ([2]; patient Pt ≠ 6): 0/48
- Th1 responses (IFN-γ positive microcultures) ([2]; patient Pt ≠ 7): 0/48
- Th2 responses (IL4 positive microcultures) ([2]; patient Pt ≠ 7): 0/48
- mean % of cytokine producing CD4 T cells, in positive microcultures (IFN-γ) ([2]; patient Pt ≠ 8): (2.9% ± 0.04)
- Th1 responses (IFN-γ positive microcultures) ([2]; patient Pt ≠ 8): 2/48
- Th2 responses (IL4 positive microcultures) ([2]; patient Pt ≠ 8): 0/48
- mean % of cytokine producing CD4 T cells, in positive microcultures (IL4) ([2]; patient Pt ≠ 9): (0.6% ± 0.09)
- Th1 responses (IFN-γ positive microcultures) ([2]; patient Pt ≠ 9): 0/48
- Th2 responses (IL4 positive microcultures) ([2]; patient Pt ≠ 9): 9/48

Source: patent publication US9475841B2, “Melanoma antigen peptide and uses thereof” (INSERM (INSTITUT NATIONAL DE LA SANTE ET DE LA RECHERCHE …, priority 2012, dated 2016)
